According to US8927715B2, “Inhibitors of 11β-hydroxysteroid dehydrogenase type 1” (Vitae Pharmaceuticals, Inc., priority 2006, dated 2015):

Assays:
human 11β-HSD1 [1] = target: T1, human 11β-HSD1 (Homo sapiens, UniProt P28845); assay: Scintillation Proximity Assay: inhibition of purified 11β-HSD1 (Biological Test Example 1); format: biochemical; design: made in house; host or cells: E. coli; conditions: purified recombinant 11β-HSD1, SPA; read-out: Biological Test Example 1 (IC50 class)
Procedure: The inhibition of purified 11β-HSD1 by compounds of Formula I or I* is measured using a Scintillation Proximity Assay. All reactions are carried out at room temperature in 96 well flexible Microbeta reaction plates. First, 1 μL of a 0.1 mM solution of a compound of Formula I or I* is mixed in DMSO diluted in half-log increments (8 points) starting at 1 μM final concentration. To this dot is added 50 μL of substrate solution (50 mM HEPES, pH 7.4, 100 mM KCl, 5 mM NaCl, 2 mM MgCl2 containing 20 μM ^3H cortisone, 1 mM NADPH). […] The reaction is then incubated for 90 minutes, and stopped by adding 50 μl of SPA bead mix (18-β-glycyrrhetinic acid, 10 μM final, 5 mg/ml protein A coated YSi SPA beads, and 1 μg/ml α-cortisol antibody (East Coast Biologics)). The plate is shaken for 120 minutes, and the radioactivity corresponding to ^3H cortisol is measured on a Wallac Microbeta.
Target sequence in this assay (P28845 whole entry, species assumed): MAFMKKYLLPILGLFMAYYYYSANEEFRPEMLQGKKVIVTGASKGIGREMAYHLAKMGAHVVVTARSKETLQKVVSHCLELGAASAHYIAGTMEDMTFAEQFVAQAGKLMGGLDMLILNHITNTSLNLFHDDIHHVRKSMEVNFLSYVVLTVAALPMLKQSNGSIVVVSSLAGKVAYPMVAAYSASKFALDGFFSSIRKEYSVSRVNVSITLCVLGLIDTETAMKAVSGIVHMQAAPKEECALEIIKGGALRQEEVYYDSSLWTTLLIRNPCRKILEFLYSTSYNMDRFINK

human 11β-HSD1 [2] = target: T1, human 11β-HSD1; assay: Inhibition of a microsomal preparation of 11β-HSD1, SPA (Biological Test Example 2); format: biochemical; design: expressed in transfected cells; host or cells: CHO cells (microsomes); conditions: read-out: Biological Test Example 2 (IC50 class)
Procedure, shortened: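 [3H]cortisol formation quantified by scintillation proximity with anti-cortisol antibody on protein A beads, reaction quenched by 10 nM 18β-glycyrrhetinic acid. Enzyme source: CHO-cell microsomes expressing human 11β-HSD1, 10-20 μg/ml protein, incubated 90 min at room temperature following 10 min pre-incubation.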
Target sequence in this assay (P28845 whole entry): as the sequence (P28845 whole entry, species assumed) above

Molecule | IC50 (human 11β-HSD1 [1]) | IC50 (human 11β-HSD1 [2])
CC(=O)N1Cc2ccccc2C2(CCN(C(=O)NC3C4CC5CC(C4)CC3C5)CC2)C1 (stereo not drawn) [Example 31, 2-Acetyl-N-(2-adamantyl)-2,3-dihydro-1H-spiro[isoquinoline-4,4′-piperidine]-1′-carboxamide] | < 50 nM | < 50 nM
O=C(O)CCCC(=O)N1Cc2ccccc2C2(CCN(C(=O)NC3C4CC5CC(C4)CC3C5)CC2)C1 (stereo not drawn) [Example 95, 5-(1′(2-Adamantylcarbamoyl)-1H-spiro[isoquinoline-4,4′-piperidine]-2(3H)-yl)-5-oxopentanoic acid] | 50 to 1000 nM | < 50 nM
CC(=O)N1CC2(CCN(C(=O)OC3C4CC5CC(C4)CC3C5)CC2)c2ccccc21 (stereo not drawn) [Example 23, 2-Adamantyl 1-acetylspiro[indoline-3,4′-piperidine]-1′-carboxylate] | < 50 nM | < 50 nM
O=C(OC1C2CC3CC(C2)CC1C3)N1CCC2(CC1)CNc1ccccc12 (stereo not drawn) [Example 20, 2-Adamantyl spiro[indoline-3,4′-piperidine]-1′-carboxylate] | < 50 nM | –
O=C(OC1C2CC3CC(C2)CC1C3)N1CCC2(CC1)OCc1ccccc12 (stereo not drawn) [Example 84, 2-Adamantyl 3H-spiro[isobenzofuran-1,4′-piperidine]-1′-carboxylate] | < 50 nM | < 50 nM
CCOC(=O)C1=CC2(CCN(C(=O)NC3C4CC5CC(C4)CC3C5)CC2)c2ccccc21 (stereo not drawn) [Example 15, Ethyl 1′-((2-adamantyl)carbamoyl)spiro[indene-1,4′-piperidine]-3-carboxylate] | < 50 nM | –
CNC(=O)CC1CC2(CCN(C(=O)OC3C4CC5CC(C4)CC3C5)CC2)c2ccccc21 (racemic) [Example 26, (±)-2-Adamantyl 3-(2-(methylamino)-2-oxoethyl)-2,3-dihydrospiro[indene-1,4′-piperidine]-1′-carboxylate] | < 50 nM | –
CCOC(=O)CC1CC2(CCN(C(=O)NC3C4CC5CC(C4)CC3C5)CC2)Oc2ccccc21 (racemic) [Example 18, (±)-Ethyl 2-1′-((2-adamantyl)carbamoyl)spiro[chroman-2,4′-piperidine]-4-yl)acetate] | 50 to 1000 nM | –
CC(C)(C)OC(=O)N1CC2(CCN(C(=O)OC3C4CC5CC(C4)CC3C5)CC2)c2ccccc21 (stereo not drawn) [Example 128, 1-Tert-butyl 1′-(2-adamantyl)spiro[indoline-3,4′-piperidine]-1,1′-dicarboxylate] | 50 to 1000 nM | –
(±)-Ethyl 1′-(cyclohexylcarbamoyl)-2,3-dihydrospiro[indene-1,4′-piperidine]-3-carboxylate [Example 16] | < 50 nM | –
CC(C)(C)OC(=O)N1CCC2(CCN(C(=O)NC3C4CC5CC(C4)CC3C5)CC2)C1 (stereo not drawn) [Example 9, tert-Butyl 8-((2-adamantyl)carbamoyl)-2,8-diazaspiro[4.5]decane-2-carboxylate] | 50 to 1000 nM | –
O=C(NC1C2CC3CC(C2)CC1C3)N1CCC2(CC1)CNCc1ccccc12 (stereo not drawn) [Example 30, N-(2-Adamantyl)-2,3-dihydro-1H-spiro[isoquinoline-4,4′-piperidine]-1′-carboxamide] | < 50 nM | < 50 nM
Cc1ccc2c(c1)C1(CCN(C(=O)OC3C4CC5CC(C4)CC3C5)CC1)CN2 (stereo not drawn) [Example 22, 2-Adamantyl 5-methylspiro[indoline-3,4′-piperidine]-1′-carboxylate] | < 50 nM | –
